Assay results as given in PubChem BioAssay (NCI).
“And” between values parts separate entries of the source, which are not always exact repeats. Identical values can stand only once.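 Protocol summary: plate cells (96-well), add compound at 5 concentrations, incubate 48 h, interpolate endpoints linearly. GI50 marks 50% less growth. TGI marks complete inhibition of growth.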

Legend:
Experiment in all cases: NCI anticancer screen, dose series, 48 h
UACC-257 melanoma = system: UACC-257 melanoma
LOX IMVI melanoma = system: LOX IMVI melanoma
SF-268 CNS = system: SF-268 CNS
UACC-62 melanoma = system: UACC-62 melanoma
MALME-3M melanoma = system: MALME-3M melanoma
EKVX NSCLC = system: EKVX NSCLC
OVCAR-4 ovarian = system: OVCAR-4 ovarian
U251 CNS = system: U251 CNS

| SMILES | GI50 (UACC-257 melanoma) | TGI (UACC-257 melanoma) | GI50 (LOX IMVI melanoma) | TGI (LOX IMVI melanoma) [µM] | GI50 (SF-268 CNS) | TGI (SF-268 CNS) | GI50 (UACC-62 melanoma) | TGI (UACC-62 melanoma) | GI50 (MALME-3M melanoma) | TGI (MALME-3M melanoma) | GI50 (EKVX NSCLC) | TGI (EKVX NSCLC) | GI50 (OVCAR-4 ovarian) | TGI (OVCAR-4 ovarian) | GI50 (U251 CNS) | TGI (U251 CNS) |
| --- | --- | --- | --- | --- | --- | --- | --- | --- | --- | --- | --- | --- | --- | --- | --- | --- |
| COc1cc(/C=C/C(=O)c2cc(OC)c(OC)c(OC)c2)cc(OC)c1OC | 4.35 µM | 34.6 µM | 2.74 µM | 10.9 | 2.77 µM | 10 µM | 5.93 µM | 20.4 µM | 2.48 µM | 19.6 µM | 2.63 µM | 21.5 µM | 3.63 µM | 57.8 µM | 3.21 µM | 16.6 µM |
| CC(C)(C)n1cc(-c2ccnc(NCCNS(=O)(=O)c3cccc4ccccc34)c2)c(-c2cccc(F)c2)n1 | 25 µM | 86.7 µM |  |  | 40.3 µM | > 100 µM | 17.3 µM | 47.7 µM | 15.3 µM | 36.8 µM | 17.2 µM | > 100 µM | 14.6 µM | 53.7 µM | 12.4 µM | 33.4 µM |
| C[C@@]12CCC[C@@](C)(C(=O)O)C1CC[C@@]13CC(=O)[C@@](CO)(CCC12)C3 (some centres undefined) | > 100 µM | > 100 µM | > 100 µM | > 100 | > 100 µM | > 100 µM | > 100 µM | > 100 µM | > 100 µM | > 100 µM | > 100 µM | > 100 µM | > 100 µM | > 100 µM | > 100 µM | > 100 µM |
| CN1CCN(c2cc(Nc3cc(C4CC4)[nH]n3)nc(Nc3ccc(CC(=O)NCc4cccc(F)c4)cc3)n2)CC1 | 1.13 µM | 2.94 µM | 0.219 µM | 1.48 | 1.23 µM | 12.3 µM | 1.62 µM | 16.2 µM | 0.496 µM | 4.55 µM | 3.41 µM | 32.4 µM | 1.55 µM | 22 µM | 0.978 µM | 5.24 µM |
| COP1(=S)OCC2CCC[C@@H]2O1 (some centres undefined) |  | > 100 µM |  |  |  | > 100 µM |  | > 100 µM |  | > 100 µM |  |  |  | > 100 µM |  | > 100 µM |
| CC(C)CC(=O)CC(O)C(Cl)(Cl)Cl (centres undefined) |  | > 100 µM |  | > 100 |  |  |  | > 100 µM |  | > 100 µM |  | > 100 µM |  | > 100 µM |  | > 100 µM |
| C=C1C(=O)O[C@H]2[C@H]1CC(=O)/C(C)=C\CC[C@@]1(C)O[C@@H]21 | 3.39 µg/mL | 6.99 µg/mL |  |  | 4.15 µg/mL | 9.58 µg/mL | 2.75 µg/mL | 6.02 µg/mL |  |  | 4 µg/mL | 8.03 µg/mL | 3.75 µg/mL | 8.12 µg/mL | 5.32 µg/mL | 10.9 µg/mL |
| CC(C)(C)c1nnc2n(c1=O)N=CC(c1ccc(Br)cc1)S2 (centres undefined) | 30.5 µM | 69.4 µM | 22.5 µM | 46.8 | 42.7 µM | > 100 µM | 17.5 µM | 32.7 µM | 26.9 µM | 79.7 µM | 22.7 µM | 66.7 µM | 33.9 µM | > 100 µM | 26 µM | 66.9 µM |
| Nc1c(O)c(S(=O)(=O)O)c(O)c2c1C(=O)c1ccccc1C2=O | 2.38 µM | 6.33 µM | 3.08 µM | 12.3 | 3.44 µM | > 100 µM | 3.21 µM | 65.6 µM | 2.61 µM | 8.36 µM | 3.09 µM | > 100 µM | 3.06 µM | 20.8 µM | 3.09 µM | 11.1 µM |
| Cc1ccc(-n2c(-c3ccc(Cl)cc3)cs/c2=N\NC(=O)COc2n[nH]c(=O)c3ccccc23)cc1 | 80.2 µM | > 100 µM | > 100 µM | > 100 | 32.9 µM | > 100 µM | 23.4 µM | > 100 µM | 31.9 µM | > 100 µM | 59.6 µM | > 100 µM | > 100 µM | > 100 µM | 37.5 µM | > 100 µM |
| Oc1ccc(SCc2ccc(NCc3ccccc3)cc2)cc1 |  | > 100 µM |  | 73.9 |  | > 100 µM |  | 76.4 µM |  | > 100 µM |  | 50.3 µM |  | > 100 µM |  | > 100 µM |
| O=[N+]([O-])c1ccc2c(c1)S(=O)c1ccccc1-2 (centres undefined) |  | > 100 µM |  | > 100 |  | > 100 µM |  | > 100 µM |  | > 100 µM |  | > 100 µM |  | > 100 µM |  | > 100 µM |
| COc1ccc(-c2c(C#N)c(N)nc3c2CCCc2ccc(F)cc2-3)cc1OC |  | > 78.5 µM | < 0.0422 µM | 19.6 | 0.0335 µM | > 100 µM | < 0.0169 µM |  | < 0.01 µM |  | 0.0861 µM |  | 1.28 µM | > 29.9 µM | < 0.0501 µM |  |
| COc1ccc(Cn2cc(Cn3c(=O)c(-c4nc5ccccc5[nH]4)cc4ccccc43)nn2)c(OC)c1OC | 0.796 µM and 2.22 µM |  | 0.254 µM and 0.112 µM |  | 0.55 µM and 0.477 µM |  | 0.672 µM | 5.42 µM | 0.139 µM and 0.42 µM | 0.985 µM and 2.8 µM | 0.904 µM and 0.605 µM | 50 µM and > 100 µM | 1.31 µM | > 100 µM | 0.308 µM and 0.183 µM | 8.29 µM and 17.6 µM |
| COc1cc2c3c(n(C)c(=O)c2cc1OC)-c1cc2c(cc1/C3=C\[C@@H](N)CCCCN)OCO2 | 5.24 µM | > 52.8 µM | 0.298 µM | 3.9 | 1.86 µM | > 42 µM | 0.467 µM | 7.38 µM | 1.84 µM | 13.3 µM | 4.56 µM | 75.9 µM | 1.26 µM | 99 µM | < 0.0209 µM | 7.41 µM |
| Oc1ccc(-c2nc3ccc4[nH]ncc4c3c3c2CCCC3)c2cccnc12 | 0.888 µM | 3.68 µM | 0.203 µM | 4.01 | 0.239 µM | 5.24 µM | 0.512 µM | 1.97 µM | 0.523 µM | 2.61 µM | 0.329 µM | 2.24 µM | 0.781 µM | 6.06 µM | 0.143 µM | 5.97 µM |
| CS(=O)(=O)CS(=O)CS(=O)CS(=O)CC(NC(=O)CCC(N)C(=O)O)C(=O)O (centres undefined) |  | > 100 µM |  | > 100 |  | > 100 µM |  | > 100 µM |  |  |  | > 100 µM |  | > 100 µM |  | > 100 µM |
